Calls of active or inactive are those of the source. The rule behind the calls is not given here.
Key:
[1] = Mean residence time in rat; assay type: ADME, organism-based; details: in vivo
[2] = target: T1, Free fatty acid receptor 1 (Homo sapiens, UniProt O14842); experiment: Agonist activity at human GPR40 expressed in mouse A9 cells by inositol phosphate accumulation assay; assay type: functional, cell-based
[3] = Volume of distribution at steady state in rat; assay type: ADME, organism-based; details: in vivo, read-out: Vdss
[4] = Oral bioavailability in rat at 2 mg/kg; assay type: ADME, organism-based; details: in vivo
[5] = target: T1, Free fatty acid receptor 1; experiment: Agonist activity at human GPR40 expressed in CHO cells by aequorin assay; assay type: cell-based
[6] = Inhibition of CYP450 (unknown origin); assay type: ADME; details: human
[7] = Oral bioavailability in dog at 2 mg/kg; assay type: ADME, organism-based, Canis lupus familiaris; details: in vivo
[8] = Volume of distribution at steady state in dog; assay type: ADME, organism-based, Canis lupus familiaris; details: in vivo, read-out: Vdss
[9] = Volume of distribution at steady state in cynomolgus monkey; assay type: ADME, organism-based, Macaca fascicularis; details: in vivo, read-out: Vdss
[10] = Half life in dog; assay type: ADME, organism-based, Canis lupus familiaris; details: in vivo
[11] = Oral bioavailability in cynomolgus monkey at 2 mg/kg; assay type: ADME, organism-based, Macaca fascicularis; details: in vivo
[12] = target: Voltage-gated inwardly rectifying potassium channel KCNH2 (Homo sapiens, UniProt Q12809); experiment: Inhibition of human ERG
Chain of Voltage-gated inwardly rectifying potassium channel KCNH2 (Q12809 whole entry): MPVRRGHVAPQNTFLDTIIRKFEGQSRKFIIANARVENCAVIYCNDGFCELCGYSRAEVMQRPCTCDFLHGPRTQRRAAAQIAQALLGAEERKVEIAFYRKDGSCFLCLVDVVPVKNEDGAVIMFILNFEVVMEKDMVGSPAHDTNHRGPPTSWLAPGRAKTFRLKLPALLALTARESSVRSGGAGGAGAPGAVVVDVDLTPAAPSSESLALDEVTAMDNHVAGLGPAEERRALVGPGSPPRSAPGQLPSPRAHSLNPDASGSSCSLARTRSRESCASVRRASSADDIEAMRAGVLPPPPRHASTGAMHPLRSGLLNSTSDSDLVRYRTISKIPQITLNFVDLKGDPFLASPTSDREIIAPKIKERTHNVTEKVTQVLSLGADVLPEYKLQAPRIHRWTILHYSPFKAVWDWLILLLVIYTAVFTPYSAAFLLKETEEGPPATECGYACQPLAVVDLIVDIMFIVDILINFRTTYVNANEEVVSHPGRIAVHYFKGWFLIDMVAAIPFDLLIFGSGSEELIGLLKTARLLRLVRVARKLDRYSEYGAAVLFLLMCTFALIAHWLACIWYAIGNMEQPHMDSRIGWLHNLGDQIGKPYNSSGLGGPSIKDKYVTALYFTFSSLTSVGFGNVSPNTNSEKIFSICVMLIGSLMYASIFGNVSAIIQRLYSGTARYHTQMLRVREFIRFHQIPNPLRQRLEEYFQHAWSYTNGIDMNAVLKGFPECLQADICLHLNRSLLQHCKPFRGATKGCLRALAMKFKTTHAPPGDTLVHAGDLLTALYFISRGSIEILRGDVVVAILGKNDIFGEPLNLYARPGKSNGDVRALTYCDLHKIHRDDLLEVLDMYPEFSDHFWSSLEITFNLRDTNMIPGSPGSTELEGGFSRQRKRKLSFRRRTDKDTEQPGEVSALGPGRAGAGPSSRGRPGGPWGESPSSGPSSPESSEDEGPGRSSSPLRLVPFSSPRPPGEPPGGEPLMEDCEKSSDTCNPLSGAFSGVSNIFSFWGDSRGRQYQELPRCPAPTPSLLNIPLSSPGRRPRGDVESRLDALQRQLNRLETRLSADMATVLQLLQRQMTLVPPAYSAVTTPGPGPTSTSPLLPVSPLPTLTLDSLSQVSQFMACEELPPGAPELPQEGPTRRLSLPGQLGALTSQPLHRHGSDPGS

[13] = Plasma concentration in mouse at 1 mg/kg, po measured for 4 hrs; assay type: ADME, organism-based; parameters: dose 1 mg/kg, route oral
Plasma = experiment: […] in mouse plasma at 1 mg/kg, po; assay type: ADME, organism-based; parameters: dose 1 mg/kg, route oral; details: in vivo
Islets of langerhans = experiment: Induction of insulin secretion in human GPR40 knock-in mouse pancreatic islets
[14] = Induction of CYP450 (unknown origin); assay type: ADME; details: human
Mus musculus [15] = experiment: Antidiabetic activity in human GPR40 knock-in mouse assessed as reduction in blood glucose level at 10 mg/kg, po administered via gavage 1 hr before glucose challenge by oral glucose tolerance test; assay type: functional, organism-based; parameters: dose 10 mg/kg
[16] = Ratio of drug level in brain to plasma in rat at 5 mg/kg, po after 3 hrs; assay type: ADME, organism-based; parameters: dose 5 mg/kg, route oral; details: brain and plasma, read-out: BPR
[17] = Half life in rat; assay type: ADME, organism-based; details: in vivo
Mus musculus [18] = experiment: Antidiabetic activity in human GPR40 knock-in mouse assessed as reduction in glucose AUC at 10 mg/kg, po administered via gavage 1 hr before glucose challenge by oral glucose tolerance test; assay type: functional
[19] = Half life in cynomolgus monkey; assay type: ADME, organism-based, Macaca fascicularis; details: in vivo
[20] = Clearance in rat at 0.5 mg/kg, iv; assay type: ADME, organism-based; parameters: dose 0.5 mg/kg, route intravenous; details: in vivo

T1 sequence (O14842 whole entry): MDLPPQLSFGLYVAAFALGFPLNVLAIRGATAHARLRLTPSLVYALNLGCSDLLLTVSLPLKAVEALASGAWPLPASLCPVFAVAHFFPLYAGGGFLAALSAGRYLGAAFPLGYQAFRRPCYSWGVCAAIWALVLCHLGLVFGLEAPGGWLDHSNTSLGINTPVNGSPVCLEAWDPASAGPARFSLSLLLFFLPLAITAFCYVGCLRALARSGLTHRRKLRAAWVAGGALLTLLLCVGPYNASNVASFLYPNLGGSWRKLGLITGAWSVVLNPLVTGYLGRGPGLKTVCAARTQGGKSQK

Structure (SMILES) | MRT [1] [h] | EC50 [2] [nM] | Vd [3] [L/kg] | bioavailability [4] [%] | EC50 [5] [nM] | further results
Cc1nc(-c2ccc(C(F)(F)F)cc2)sc1COc1ccc([C@H](CC(=O)O)c2nnnn2C)cc1 | 0.74 | 3.8 | 3.2 | 6.7 | 41 | 
Cc1nc(-c2ccc(C(F)(F)F)cc2)sc1COc1ccc([C@H](CC(=O)O)c2ccon2)cc1 |  | 3.6 | 0.68 | 77 | 36 | inhibition (INH) [6]: Not Active; bioavailability [7]: 100%; Vd [8]: 0.6 L/kg; Vd [9]: 0.35 L/kg; half-life [10]: 336 min; bioavailability [11]: 65%; inhibition (INH) [12]: Not Active; concentration at 4 h [13]: 2000 nM; Cp(f) (Plasma): 8 nM; EC50 (Islets of langerhans): 55 nM; Activity [14]: Not Active; inhibition (Mus musculus [15]): Active; Kp at 3 h [16]: 0.02; half-life [17]: 318 min; inhibition in vivo at 10 mg/kg (Mus musculus [18]): 19%; half-life [19]: 840 min
Cc1cc(Cl)ccc1-c1cccc(COc2ccc([C@H](CC(=O)O)c3nnnn3C)cc2)c1 | 5.2 | 1.3 | 14.3 | 53 | 12 | 
Cc1nc(-c2ccc(C(F)(F)F)cc2)sc1COc1ccc([C@H](CC(=O)O)c2nccn2C)cc1 | 3.7 | 16 | 0.64 |  | 73 | 
Cc1nc(-c2ccc(C(F)(F)F)cc2)sc1COc1ccc([C@H](CC(=O)O)c2ncnn2C)cc1 | 3.6 |  | 1.5 |  | 65 | 
CC#C[C@@H](CC(=O)O)c1ccc(OCc2cccc(-c3ccc(C(F)(F)F)cc3)c2)cc1 | 10 |  | 0.58 | 84 |  | 
CC#C[C@@H](CC(=O)O)c1ccc(OCc2cccc(-c3ccc(Cl)cc3C)c2)cc1 |  |  |  |  | 36 | 
Cc1cc(Cl)ccc1-c1cccc(COc2ccc([C@H](CC(=O)O)c3nccn3C)cc2)c1 | 2.4 | 7.6 | 0.73 | 48 | 33 | clearance [20]: 5.17 mL/min/kg
Cc1nc(-c2ccc(C(F)(F)F)cc2)sc1COc1ccc([C@H](CC(=O)O)c2cnco2)cc1 |  | 9 |  |  | 57 | 
Cc1cc(Cl)ccc1-c1cccc(COc2ccc([C@H](CC(=O)O)c3ncnn3C)cc2)c1 | 2.5 | 11 | 3.5 | 18 | 33 | 
Cc1nc(-c2ccc(C(F)(F)F)cc2)sc1COc1ccc([C@H](CC(=O)O)c2ncco2)cc1 |  |  |  |  | 69 | 

— ChEMBL document CHEMBL3286293, “Optimization of GPR40 Agonists for Type 2 Diabetes” (ACS Med Chem Lett, 2014)
